Results as given in patent US8877738B2, “Antipathogenic peptides” (priority 2009, dated 2014).
≈ marks a conversion by molar mass, not a printed value. Ends that are not written are not given here.

Experiments:
HPV-16 PsV = details: HPV-16-SEAP PsV preincubated with peptide, 293TT cells, 72 h post-infection
Text: HPV-16 PsV were produced according to previously described methods (Buck et al., 2005). Briefly, 293TT cells were transfected with the plasmid p16sheLL expressing the papillomavirus major and minor capsid proteins (L1 and L2) together with a reporter plasmid expressing the secreted alkaline phosphatase (SEAP) or the green fluorescence protein (GFP) named pYSEAP or pfwB respectively. Capsids were allowed to mature overnight in cell lysate; the clarified supernatant was then loaded on top of a 27-33-39% Optiprep (Sigma-Aldrich, St. Louis, Mo., USA) density gradient at room temperature for 4 h. […] The L1 protein content of PsV stocks was determined by comparison with bovine serum albumin standards in Coomassie-stained SDS-PAGE gels.
For the Secreted Embryonic Alkaline Phosphate (SEAP)-based assays 293TT cells were preplated 3-4 h in advance in 96-well tissue culture-treated flat bottom plates at a density of 30,000 cells/well in 100 μl neutralization buffer (DMEM without phenol red, 10% heat-inactivated FBS, 1% glutamate, 1% nonessential amino acids, 1% penicillin-streptomycin-fungizone, and 10 mM HEPES). […] The SEAP content in the clarified supernatant was determined using a Great ESCAPE SEAP Chemiluminescence Kit (BD Clontech, Mountain View, Calif., USA) as directed by the manufacturer. […]

HCMV VR1814 = details: HUVECs, M.O.I. 1, 6 days p.i.
Protocol: (§1) FIGS. 4A and 4B. […] HUVECs were infected with the endotheliotropic and clinical HCMV isolate VR1814 (FIG. 4B) at a M.O.I of 1. The extent of AD169 or AU replication was then assessed by titrating the infectivity of supernatants of HELF suspensions by standard plaque assay. The extent of VR1814 replication was measured by titrating the infectivity of supernatants of cell suspensions by the indirect immunoperoxidase staining procedure on HUVECs using a monoclonal antibody (mAb) reactive to the HCMV IE proteins. Plaques were microscopically counted, and the mean plaque counts for each peptide concentration were expressed as a percentage of the mean count of the controls. The number of plaques was plotted as a function of drug concentration, and the concentration producing a 50% reduction in plaque formation (IC50) was determined.
The cells and supernatants from the antiviral assay were then harvested and disrupted by sonication.

in vitro = details: human, 293TT cells
Protocol: The 293TT cell line derived from human embryonal kidney cells transformed with the SV40 large T antigen was cultured in Dulbecco's modified Eagle's medium (DMEM) (Gibco/BRL, Gaithersburg, Md., USA) supplemented with heat-inactivated 10% bovine serum (Gibco/BRL), Glutamax-I (Invitrogen, Carlsbad, Calif., USA) and nonessential aminoacids. This cell line allows high levels of protein to be expressed from vectors containing the SV40 origin due to overreplication of the expression plasmid (Buck et al., 2004).
Cells were seeded at a density of 5×10^4/well in 24-well plates; the next day they were treated with serially diluted peptides to generate dose-response curves. Forty-eight or 72 h after treatment, cell viability was determined by the 3-(4,5-dimethylthiazol-2-yl)-2,5-diphenyltetrazolium bromide (MTT) method; 50% cytotoxic concentration (CC50) values were determined using Prism.

[1] = test system: HCMV clinical isolate AL1; details: HELFs, M.O.I. 1, 6 days p.i.
Protocol: as §1
(§2) After 1 hour, they were infected with HCMV AD169 or HCMV AL1 at a M.O.I. of 1 PFU/cell. […] The cells and supernatants from the antiviral assay were then harvested and disrupted by sonication. The extent of virus replication was assessed by titrating the infectivity of supernatants of cell suspensions by standard plaque assay on HELFs.

[2] = test system: HCMV laboratory strain AD169; details: HELFs, M.O.I. 1, treated 1 h before and during infection, 6 days p.i.
Protocol: as §1, §2

HSV-1 = HSV-1 attachment (adsorption) assay on Vero cells; format: cell-based; details: compound present during adsorption, 3 h at 4° C., 200 PFU; plaques after 48 h
Protocol: (§3) FIG. 3. The dendrimeric peptides SB105 and SB105-A10 inhibit HSV-1 and HSV-2 attachment to Vero cells. Pre-chilled Vero cells were incubated at 4° C. with different concentrations of SB105, SB105-A10, SB104 or heparin and with 200 PFU of HSV-1 or HSV-2. Following virus adsorption (3 h at 4° C.), cells were then washed with cold PBS three times to remove compound and unadsorbed viruses, overlaid with medium containing 1.2% methylcellulose and incubated at 37° C. for 48 h. Viral plaques were then stained and counted, and the mean plaque counts for each peptide concentration expressed as a percentage of the mean count of the controls. The data shown represent means±SD of three independent experiments (error bars).
(§4) Following virus adsorption (3 h at 4° C., a condition that is known to allow virus adsorption only), cells were then washed with cold PBS three times to remove compound and unadsorbed viruses, overlaid with medium containing 1.2% methylcellulose and incubated at 37° C. Forty eight hours later, plates were fixed and stained with crystal violet and the viral plaques counted.

HSV-2 = HSV-2 attachment (adsorption) assay on Vero cells; format: cell-based; details: compound present during adsorption, 3 h at 4° C., 200 PFU; plaques after 48 h
Protocol: as §3, §4

HIV-1IIIb = HIV-1IIIb replication in C8166 cells (RNA load by real time RT-PCR, p24 ELISA); format: cell-based; details: day 7 post-infection, 0.1-20 μg/ml
Text: FIG. 8: Quantitative real time RT-PCR analysis of HIV-1 RNA load in HIV-1 infected C8166 cell culture supernatants at day 7 post infection. […] The data are reported as means±SD of three independent experiments performed in duplicate.
FIG. 9: ELISA HIV-1 p24 protein analysis in HIV-1 infected C8166 cell culture supernatants at day 7 post infection. […] The data are reported as means±SD of three independent experiments performed in duplicate.
HIV-1 RNA viral load and HIV-1 gag p24 content were determined at day 7 post-infection in the culture supernatants in three independent experiments performed in duplicate. HIV-1 RNA was extracted by Roche high pure viral nucleic acid kit (Roche, Mannheim, Germany) from 200 μl of culture supernatants and then RNA load was assessed by quantitative real time RT-PCR as previously described (Gibellini et al., 2004). In parallel, HIV-1 gag p24 protein amount was determined by ELISA HIV-1 p24 antigen kit (Biomerieux Marcy L'Etoile, France).

HCMV AD169 = assay: HCMV attachment (adsorption) assay on HELF cells; format: cell-based; details: compound present during adsorption, 3 h at 4° C., 200 PFU AD169; plaques after 6 days
Protocol: FIG. 6. HCMV adsorption to target cells is inhibited by SB105 and SB105-A10 dendrimeric peptides. Pre-chilled HELF cells were incubated at 4° C. with different concentrations of SB105, SB105-A10, SB104 or heparin and with 200 PFU of HCMV AD169. Following virus adsorption (3 h at 4° C.), cells were washed with cold PBS three times to remove compound and unadsorbed viruses, overlaid with medium containing 1.2% methylcellulose and incubated at 37° C. for 6 days. Viral plaques were then stained and counted and the mean plaque counts for each peptide concentration were expressed as a percentage of the mean count of the controls. The data shown represent means±SD of three independent experiments (error bars).
After 24 h, they were prechilled to 4° C. and incubated in duplicate at 4° C. with different concentrations of SB105, SB105_A10, SB104 (as negative control for inhibition of viral replication) or heparin (as a positive control for inhibition of viral adsorption) and with 200 PFU of HCMV AD169. Following virus adsorption (3 h at 4° C., a condition that is known to allow virus adsorption only), cells were then washed with cold PBS three times to remove compound and unadsorbed viruses, overlaid with medium containing 1.2% methylcellulose and incubated at 37° C. for 6 days. Plates were then fixed and stained with crystal violet and the viral plaques counted.

Row | Compound | IC50 against HPV-16 PsV (HPV-16 PsV) [µg/mL] | IC50, endotheliotropic HCMV VR1814 replication (HCMV VR1814) [µg/mL] | CC50 (in vitro) [µg/mL] | IC50, HCMV clinical isolate AL1 replication [1] [µg/mL] | 50% inhibition of HCMV AD169 replication (IC50) [2] [µg/mL] | effect on HSV-1 attachment to Vero cells (HSV-1) | effect on HSV-2 attachment to Vero cells (HSV-2) | HIV-1 gag p24 content in culture supernatants (HIV-1IIIb; ELISA) | HIV-1 RNA load in culture supernatants (HIV-1IIIb; real time RT-PCR) | effect on HCMV attachment (adsorption) to HELF cells (HCMV AD169)
1 | CC[C@H](C)[C@H](NC(=O)[C@H](CCCNC(=N)N)NC(=O)[C@@H](NC(=O)[C@H](CCCNC(=N)N)NC(=O)[C@H](CC(C)C)NC(=O)[C@H](CO)NC(=O)[C@H](C)N)C(C)C)C(=O)N[C@@H](CCCCN)C(=O)N[C@@H](CCCCN)C(=O)N[C@@H](CCC(N)=O)C(=O)NCCCC[C@H](NC(=O)[C@H](CCC(N)=O)NC(=O)[C@H](CCCCN)NC(=O)[C@H](CCCCN)NC(=O)[C@@H](NC(=O)[C@H](CCCNC(=N)N)NC(=O)[C@@H](NC(=O)[C@H](CCCNC(=N)N)NC(=O)[C@H](CC(C)C)NC(=O)[C@H](CO)NC(=O)[C@H](C)N)C(C)C)[C@@H](C)CC)C(=O)NCCCC[C@H](NC(=O)[C@H](CCCCNC(=O)[C@H](CCC(N)=O)NC(=O)[C@H](CCCCN)NC(=O)[C@H](CCCCN)NC(=O)[C@@H](NC(=O)[C@H](CCCNC(=N)N)NC(=O)[C@@H](NC(=O)[C@H](CCCNC(=N)N)NC(=O)[C@H](CC(C)C)NC(=O)[C@H](CO)NC(=O)[C@H](C)N)C(C)C)[C@@H](C)CC)NC(=O)[C@H](CCC(N)=O)NC(=O)[C@H](CCCCN)NC(=O)[C@H](CCCCN)NC(=O)[C@@H](NC(=O)[C@H](CCCNC(=N)N)NC(=O)[C@@H](NC(=O)[C@H](CCCNC(=N)N)NC(=O)[C@H](CC(C)C)NC(=O)[C@H](CO)NC(=O)[C@H](C)N)C(C)C)[C@@H](C)CC)C(=O)NCCC(N)=O [SB105, (ASLRVRIKKQ)4-Lys2-Lys-β-Ala] | 11.6 (≈ 2.23 µM) | 1.1 (≈ 0.212 µM) | > 100 | 1.2 (≈ 0.231 µM) | 1.17 |  |  |  |  | 
2 | (NKKIRVRL)4-Lys2-Lys-β-Ala (also: tetramer on Lys2-Lys-β-Ala core) [SB104] |  |  |  |  |  | did not significantly reduce | did not significantly reduce | did not induce significant inhibition | did not induce significant inhibition | did not significantly reduce
3 | heparin |  |  |  |  |  | prevented virus adsorption | prevented virus adsorption |  |  | prevented virus adsorption
